Experimental data as given in patent US6608003B2, “Herbicidal solutions comprising fatty acid ammonium salts and dicarboxylic acid diesters and methods of using the same” (Falcon Lab LLC, priority 2000, dated 2003).

Key:
[1] = Solubility of the diester in 40% aqueous ammonium pelargonate solution; type: physicochemical; conditions: for amount of ester that dissolves in 100 g of 40% ammonium pelargonate to give a clear composition: 22 deg, successive additions of 99% ester; for dissolved diester content of the clear aqueous ammonium pelargonate composition: by weight, 40% (saturated) ammonium pelargonate solution
Experimental: A 40% solution of ammonium pelargonate was prepared by slowly adding 33 g. of 28% ammonium hydroxide to a stirred mixture of 89.3 g. of nonanoic acid (commercial pelargonic acid from Cognis Corp.) and 124.3 g. of distilled water.
To 361 gm. (2.29 mole) of technical pelargonic acid was added slowly with stirring a solution of 139 gm. of 28% ammonium hydroxide (2.29 mole NH3) in 500 ml. of deionized water.
A 40% solution of ammonium pelargonate was prepared by slowly adding 33 g. of 28% ammonium hydroxide to a stirred mixture of 89.3 g. of nonanoic acid (commercial pelargonic acid from Cognis Corp.) and 124.3 g. of distilled water. […]

Solubility in water = type: physicochemical

COC(=O)CCCCCC(=O)OC [dimethyl pimelate, Dimethyl pimelate]
amount of ester that dissolves in 100 g of 40% ammonium pelargonate to give a clear composition [1]: 22.5 g | dissolved diester content of the clear aqueous ammonium pelargonate composition [1]: 17.9% | solubility in water (in words) (Solubility in water): insoluble in water

COC(=O)CCCCCCC(=O)OC [dimethyl suberate, Dimethyl suberate]
amount of ester that dissolves in 100 g of 40% ammonium pelargonate to give a clear composition [1]: 19.3 g | dissolved diester content of the clear aqueous ammonium pelargonate composition [1]: 16.2% | solubility in water (in words) (Solubility in water): insoluble in water
